Measurements taken from publication PMC8398451, “Molecular Engineering of Curcumin, an Active Constituent of Curcuma longa L. (Turmeric) of the Family Zingiberaceae with Improved Antiproliferative Activity” (Plants, 2021).

What was measured:
Assay type in all cases: cell-based, Human
[1] = system: Colon Cancer cell line panel; assay: NCI antiproliferative assay, panel summary; conditions: for Mean % GI: 10 µM
K-562 = assay: NCI antiproliferative SRB assay, Leukemia panel; conditions: for %GI / GP (growth percent): one dose 10 µM
HT29 = assay: NCI antiproliferative SRB assay, Colon Cancer panel; conditions: for %GI / GP (growth percent): one dose 10 µM
MCF7 = assay: NCI antiproliferative SRB assay, Breast Cancer panel; conditions: for %GI / GP (growth percent): one dose 10 µM
MALME-3M = assay: NCI antiproliferative SRB assay, Melanoma panel; conditions: for %GI / GP (growth percent): one dose 10 µM
NCI-H226 = assay: NCI antiproliferative SRB assay, Non-Small Cell Lung Cancer panel; conditions: for %GI / GP (growth percent): one dose 10 µM
[2] = system: CNS Cancer cell line panel; assay: NCI antiproliferative assay, panel summary; conditions: for Mean % GI: 10 µM
OVCAR-4 = assay: NCI antiproliferative SRB assay, Ovarian Cancer panel; conditions: for %GI / GP (growth percent): one dose 10 µM
T-47D = assay: NCI antiproliferative SRB assay, Breast Cancer panel; conditions: for %GI / GP (growth percent): one dose 10 µM
SNB-75 = assay: NCI antiproliferative SRB assay, CNS Cancer panel; conditions: for %GI / GP (growth percent): one dose 10 µM
OVCAR-5 = assay: NCI antiproliferative SRB assay, Ovarian Cancer panel; conditions: for %GI / GP (growth percent): one dose 10 µM
[3] = system: Renal Cancer cell line panel; assay: NCI antiproliferative assay, panel summary; conditions: Renal Cancer panel; for Mean % GI: 10 µM
NCI-H23 = assay: NCI antiproliferative SRB assay, Non-Small Cell Lung Cancer panel; conditions: for %GI / GP (growth percent): one dose 10 µM
CCRF-CEM = assay: NCI antiproliferative SRB assay, Leukemia panel; conditions: for %GI / GP (growth percent): one dose 10 µM
SF-539 = assay: NCI antiproliferative SRB assay, CNS Cancer panel; conditions: for %GI / GP (growth percent): one dose 10 µM
SR = assay: NCI antiproliferative SRB assay, Leukemia panel
TK-10 = assay: NCI antiproliferative SRB assay, Renal Cancer panel; conditions: for %GI / GP (growth percent): one dose 10 µM
SF-268 = assay: NCI antiproliferative SRB assay, CNS Cancer panel; conditions: for %GI / GP (growth percent): one dose 10 µM
HOP-62 = assay: NCI antiproliferative SRB assay, Non-Small Cell Lung Cancer panel; conditions: for %GI / GP (growth percent): one dose 10 µM
SN 12C = assay: NCI antiproliferative SRB assay, Renal Cancer panel; conditions: for %GI / GP (growth percent): one dose 10 µM
SK-OV-3 = assay: NCI antiproliferative SRB assay, Ovarian Cancer panel; conditions: for %GI / GP (growth percent): one dose 10 µM
ACHN = assay: NCI antiproliferative SRB assay, Renal Cancer panel; conditions: for %GI / GP (growth percent): one dose 10 µM
SW-620 = assay: NCI antiproliferative SRB assay, Colon Cancer panel; conditions: for %GI / GP (growth percent): one dose 10 µM
PC-3 = assay: NCI antiproliferative SRB assay, Prostate Cancer panel; conditions: for %GI / GP (growth percent): one dose 10 µM
[4] = Homo sapiens, 5-dose assay, read-out: Sub Panel MID b (mean GI50 of panel)
[5] = Homo sapiens, 5-dose 0.01-100 µM
[6] = Homo sapiens, 5-dose 0.01-100 µM, read-out: LC50 (the source's name)
[7] = Homo sapiens, T47D, 5-dose 0.01-100 µM

COc1ccc(/C=C/c2cc(/C=C/c3ccc(OC)c(O)c3)n(-c3cccc(Cl)c3)c(=S)n2)cc1O [3a]
Mean % GI [1]: 16.72%
%GI (K-562): 40.77%
GP (growth percent) (K-562): 59.23
%GI (HT29): 53.43%
GP (growth percent) (HT29): 46.57
%GI (MCF7): 32.09%
GP (growth percent) (MCF7): 67.91
%GI (MALME-3M): 10.54%
GP (growth percent) (MALME-3M): 89.46
%GI (NCI-H226): 1.46%
GP (growth percent) (NCI-H226): 98.54
Mean % GI [2]: 14.74%
%GI (OVCAR-4): 17.45%
GP (growth percent) (OVCAR-4): 82.55
%GI (T-47D): 36.18%
GP (growth percent) (T-47D): 63.82
%GI (SNB-75): 19.22%
GP (growth percent) (SNB-75): 80.78
%GI (OVCAR-5): −12.92%
GP (growth percent) (OVCAR-5): 112.92
Mean % GI [3]: 7.23%
%GI (NCI-H23): 9.05%
GP (growth percent) (NCI-H23): 90.95
%GI (CCRF-CEM): 46.57%
GP (growth percent) (CCRF-CEM): 53.43
%GI (SF-539): 6.89%
GP (growth percent) (SF-539): 93.11
%GI (SR; one dose 10 µM): 51.28%
GP (growth percent) (SR; one dose 10 µM): 48.72
%GI (TK-10): −12.60%
GP (growth percent) (TK-10): 112.60
%GI (SF-268): 16.24%
GP (growth percent) (SF-268): 83.76
%GI (HOP-62): 4.94%
GP (growth percent) (HOP-62): 95.06
%GI (SN 12C): 7.39%
GP (growth percent) (SN 12C): 92.61
%GI (SK-OV-3): −0.88%
GP (growth percent) (SK-OV-3): 100.88
%GI (ACHN): 4.99%
GP (growth percent) (ACHN): 95.01
%GI (SW-620): 10.52%
GP (growth percent) (SW-620): 89.48
%GI (PC-3): 10.79%
GP (growth percent) (PC-3): 89.21

COc1ccc(NC(=O)n2nc(/C=C/c3ccc(O)c(OC)c3)cc2/C=C/c2ccc(O)c(OC)c2)cc1 [3b]
Mean % GI [1]: 60%
Selectivity Ratio (MID a:MID b) ([1]; 5-dose assay): 0.85
GI50 [1, 4]: 5.77 µM
TGI (K-562; 5-dose 0.01-100 µM): 16.9 µM
GI50 (K-562; Homo sapiens, K562, 5-dose 0.01-100 µM): 2.87 µM
CC50 (K-562; Homo sapiens, K562, 5-dose 0.01-100 µM, read-out: LC50 (the source's name)): > 100 µM
%GI (K-562): 90.75%
GP (growth percent) (K-562): 9.25
TGI (HT29; 5-dose 0.01-100 µM): 11.0 µM
GI50 (HT29; Homo sapiens, HT-29, 5-dose 0.01-100 µM): 3.52 µM
CC50 (HT29; Homo sapiens, HT-29, 5-dose 0.01-100 µM, read-out: LC50 (the source's name)): > 100 µM
%GI (HT29): 68.74%
GP (growth percent) (HT29): 31.26
TGI (MCF7; 5-dose 0.01-100 µM): 17.0 µM
GI50 (MCF7; [5]): 3.3 µM
CC50 (MCF7; [6]): > 100 µM
%GI (MCF7): 84.37%
GP (growth percent) (MCF7): 15.63
TGI (MALME-3M; 5-dose 0.01-100 µM): 38.6 µM
GI50 (MALME-3M; [5]): 3.66 µM
CC50 (MALME-3M; [6]): > 100 µM
%GI (MALME-3M): 48.14%
GP (growth percent) (MALME-3M): 51.86
TGI (NCI-H226; 5-dose 0.01-100 µM): 78.6 µM
GI50 (NCI-H226; [5]): 10.7 µM
CC50 (NCI-H226; [6]): > 100 µM
%GI (NCI-H226): 12.85%
GP (growth percent) (NCI-H226): 87.15
Mean % GI [2]: 67.06%
Selectivity Ratio (MID a:MID b) ([2]; 5-dose assay): 1.28
GI50 [2, 4]: 3.83 µM
TGI (OVCAR-4; 5-dose 0.01-100 µM): 90.7 µM
GI50 (OVCAR-4; [5]): 5.72 µM
CC50 (OVCAR-4; [6]): > 100 µM
%GI (OVCAR-4): 48.49%
GP (growth percent) (OVCAR-4): 51.51
TGI (T-47D; 5-dose 0.01-100 µM): 25.8 µM
GI50 (T-47D; [7]): 3.68 µM
LC50 (lethal concentration, 50% cell kill) (T-47D; [7]): > 100 µM
%GI (T-47D): 65.17%
GP (growth percent) (T-47D): 34.83
TGI (SNB-75; 5-dose 0.01-100 µM): 16.3 µM
GI50 (SNB-75; [5]): 2.35 µM
CC50 (SNB-75; [6]): > 100 µM
%GI (SNB-75): 67.39%
GP (growth percent) (SNB-75): 32.61
TGI (OVCAR-5; 5-dose 0.01-100 µM): 54.1 µM
GI50 (OVCAR-5; [5]): 18.8 µM
CC50 (OVCAR-5; [6]): > 100 µM
%GI (OVCAR-5): 37.70%
GP (growth percent) (OVCAR-5): 62.30
GI50 [3, 4]: 5.84 µM
Mean % GI [3]: 60.54%
Selectivity Ratio (MID a:MID b) ([3]; 5-dose assay): 0.84
TGI (NCI-H23; 5-dose 0.01-100 µM): 63.8 µM
GI50 (NCI-H23; [5]): 3.81 µM
CC50 (NCI-H23; [6]): > 100 µM
%GI (NCI-H23): 56.06%
GP (growth percent) (NCI-H23): 43.94
TGI (CCRF-CEM; 5-dose 0.01-100 µM): 32.7 µM
GI50 (CCRF-CEM; [5]): 2.34 µM
CC50 (CCRF-CEM; [6]): > 100 µM
%GI (CCRF-CEM): 88.23%
GP (growth percent) (CCRF-CEM): 11.77
TGI (SF-539; 5-dose 0.01-100 µM): 13.6 µM
GI50 (SF-539; [5]): 2.35 µM
CC50 (SF-539; [6]): > 100 µM
%GI (SF-539): 93.28%
GP (growth percent) (SF-539): 6.72
TGI (SR; 5-dose 0.01-100 µM): 12.8 µM
GI50 (SR; [5]): 1.52 µM
CC50 (SR; [6]): > 100 µM
TGI (TK-10; 5-dose 0.01-100 µM): 95.3 µM
GI50 (TK-10; [5]): 10.2 µM
CC50 (TK-10; [6]): > 100 µM
%GI (TK-10): 36.16%
GP (growth percent) (TK-10): 63.84
TGI (SF-268; 5-dose 0.01-100 µM): 36.4 µM
GI50 (SF-268; [5]): 3.21 µM
CC50 (SF-268; [6]): > 100 µM
%GI (SF-268): 58.19%
GP (growth percent) (SF-268): 41.81
TGI (HOP-62; 5-dose 0.01-100 µM): 42.8 µM
GI50 (HOP-62; [5]): 3.65 µM
CC50 (HOP-62; [6]): > 100 µM
%GI (HOP-62): 67.25%
GP (growth percent) (HOP-62): 32.75
TGI (SN 12C; 5-dose 0.01-100 µM): 33.7 µM
GI50 (SN 12C; Homo sapiens, SN12C, 5-dose 0.01-100 µM): 3.05 µM
CC50 (SN 12C; Homo sapiens, SN12C, 5-dose 0.01-100 µM, read-out: LC50 (the source's name)): > 100 µM
%GI (SN 12C): 68.55%
GP (growth percent) (SN 12C): 31.45
TGI (SK-OV-3; 5-dose 0.01-100 µM): 27.5 µM
GI50 (SK-OV-3; [5]): 3.66 µM
CC50 (SK-OV-3; [6]): > 100 µM
%GI (SK-OV-3): 39.26%
GP (growth percent) (SK-OV-3): 60.74
TGI (ACHN; 5-dose 0.01-100 µM): >100 µM
GI50 (ACHN; [5]): 4.18 µM
CC50 (ACHN; [6]): > 100 µM
%GI (ACHN): 77.93%
GP (growth percent) (ACHN): 26.03
TGI (SW-620; 5-dose 0.01-100 µM): 61.6 µM
GI50 (SW-620; [5]): 5.51 µM
CC50 (SW-620; [6]): > 100 µM
%GI (SW-620): 72.90%
GP (growth percent) (SW-620): 27.10
TGI (PC-3; 5-dose 0.01-100 µM): >100 µM
GI50 (PC-3; [5]): 5.11 µM
CC50 (PC-3; [6]): > 100 µM
%GI (PC-3): 71.57%
GP (growth percent) (PC-3): 28.43
